Like-named read-outs stand apart in the source and are kept apart here.
Legend:
ACCase [1] = biological target: T1, ACCase (Lolium perenne, UniProt Z9B5O7SYH2); experiment: ATP-dependent incorporation of […]-bicarbonate into malonyl-CoA; format: biochemical; conditions: S population; partially purified leaf extract; 5 mM acetyl-CoA, pH 8.3, 34°C; diclofop-acid per methods; read-out: I50
T1 construct: native enzyme, young leaf extract, ammonium sulfate fraction, desalted; isoforms not separated

ACCase [2] = biological target: T1, ACCase; experiment: as above; format: biochemical; conditions: R population extract, heterogeneous alleles; 5 mM acetyl-CoA, pH 8.3, 34°C; stated gain; read-out: I50
ACCase [3] = biological target: T2, ACCase (Lolium multiflorum, UniProt A0AAD8WR50); experiment: as above; format: biochemical; conditions: S population; partially purified leaf extract; 5 mM acetyl-CoA, pH 8.3, 34°C; diclofop-acid per methods; read-out: I50
T2 construct: gene QYE76_038327; native enzyme, young leaf extract, ammonium sulfate fraction, desalted; isoforms not separated

EPSPS = experiment: phosphate release, EnzCheck phosphate assay, […] nm; format: biochemical, Lolium perenne; conditions: S population; partially purified leaf extract; pH 7.0; read-out: I50

T2 sequence (A0AAD8WR50 1-2320): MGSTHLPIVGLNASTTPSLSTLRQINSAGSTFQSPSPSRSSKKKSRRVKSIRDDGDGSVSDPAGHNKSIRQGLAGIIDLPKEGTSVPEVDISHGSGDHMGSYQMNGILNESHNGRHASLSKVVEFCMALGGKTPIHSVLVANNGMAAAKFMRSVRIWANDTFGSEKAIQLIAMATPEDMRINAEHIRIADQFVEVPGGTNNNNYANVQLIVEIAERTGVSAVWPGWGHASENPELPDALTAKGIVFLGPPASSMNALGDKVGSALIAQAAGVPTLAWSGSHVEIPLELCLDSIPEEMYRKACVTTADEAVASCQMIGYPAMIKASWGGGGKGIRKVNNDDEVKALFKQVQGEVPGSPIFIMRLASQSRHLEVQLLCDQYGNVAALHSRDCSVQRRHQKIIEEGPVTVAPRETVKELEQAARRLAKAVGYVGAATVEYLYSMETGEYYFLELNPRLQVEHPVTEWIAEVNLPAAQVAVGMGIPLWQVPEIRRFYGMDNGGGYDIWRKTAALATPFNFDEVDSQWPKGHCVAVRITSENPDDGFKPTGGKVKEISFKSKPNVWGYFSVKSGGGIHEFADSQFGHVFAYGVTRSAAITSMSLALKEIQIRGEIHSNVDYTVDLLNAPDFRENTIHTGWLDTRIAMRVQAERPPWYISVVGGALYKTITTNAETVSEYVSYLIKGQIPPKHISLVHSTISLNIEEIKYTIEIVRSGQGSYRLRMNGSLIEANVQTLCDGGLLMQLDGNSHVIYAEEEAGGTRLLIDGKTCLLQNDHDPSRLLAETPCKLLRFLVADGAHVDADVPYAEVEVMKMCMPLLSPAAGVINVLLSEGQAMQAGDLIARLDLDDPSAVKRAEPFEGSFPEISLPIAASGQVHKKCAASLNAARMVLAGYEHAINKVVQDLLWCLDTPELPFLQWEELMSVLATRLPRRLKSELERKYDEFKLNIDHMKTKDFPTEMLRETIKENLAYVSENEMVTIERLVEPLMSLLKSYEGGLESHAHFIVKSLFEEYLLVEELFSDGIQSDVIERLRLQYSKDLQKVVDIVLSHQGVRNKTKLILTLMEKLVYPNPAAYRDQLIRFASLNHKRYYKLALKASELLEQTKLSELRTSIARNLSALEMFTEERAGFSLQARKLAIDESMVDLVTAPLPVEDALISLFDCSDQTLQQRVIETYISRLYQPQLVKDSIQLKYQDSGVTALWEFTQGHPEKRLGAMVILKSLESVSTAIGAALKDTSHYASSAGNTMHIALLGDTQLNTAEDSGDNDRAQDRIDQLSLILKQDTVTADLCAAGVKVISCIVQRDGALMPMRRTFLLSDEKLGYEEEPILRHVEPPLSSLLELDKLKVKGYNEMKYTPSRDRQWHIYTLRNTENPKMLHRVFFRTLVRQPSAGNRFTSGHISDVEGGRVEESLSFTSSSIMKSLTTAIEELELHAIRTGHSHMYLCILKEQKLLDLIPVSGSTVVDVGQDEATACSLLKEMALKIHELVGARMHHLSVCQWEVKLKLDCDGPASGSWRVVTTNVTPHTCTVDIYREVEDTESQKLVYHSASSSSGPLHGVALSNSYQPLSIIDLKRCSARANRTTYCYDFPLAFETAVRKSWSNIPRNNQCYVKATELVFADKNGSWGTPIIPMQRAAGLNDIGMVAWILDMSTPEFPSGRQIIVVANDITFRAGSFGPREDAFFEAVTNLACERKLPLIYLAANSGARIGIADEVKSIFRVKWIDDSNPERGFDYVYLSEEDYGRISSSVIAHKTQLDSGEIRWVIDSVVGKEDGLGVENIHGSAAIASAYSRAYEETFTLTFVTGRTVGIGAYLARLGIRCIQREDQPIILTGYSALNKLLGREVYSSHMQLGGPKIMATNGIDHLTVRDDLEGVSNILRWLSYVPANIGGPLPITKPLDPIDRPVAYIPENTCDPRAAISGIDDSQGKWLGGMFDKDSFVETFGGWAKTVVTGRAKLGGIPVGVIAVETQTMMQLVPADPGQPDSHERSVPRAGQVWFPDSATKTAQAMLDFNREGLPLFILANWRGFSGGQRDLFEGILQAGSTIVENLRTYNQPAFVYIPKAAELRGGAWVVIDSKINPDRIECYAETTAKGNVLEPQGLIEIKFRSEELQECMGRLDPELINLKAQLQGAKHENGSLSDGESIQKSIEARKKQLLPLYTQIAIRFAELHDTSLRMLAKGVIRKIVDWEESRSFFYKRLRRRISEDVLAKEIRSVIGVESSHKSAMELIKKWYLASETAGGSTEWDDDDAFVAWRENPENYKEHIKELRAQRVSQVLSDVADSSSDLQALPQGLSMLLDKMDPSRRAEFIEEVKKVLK

Compound	IC50 (ACCase [1]) [µM]	IC50 (ACCase [2]) [µM]	IC50 (ACCase [3]) [µM]	IC50 (EPSPS) [µM]
CC(Oc1ccc(Oc2ccc(Cl)cc2Cl)cc1)C(=O)O (stereo not shown) [diclofop-acid]	6.2	68.6	4.6	–
O=C(O)CNCP(=O)(O)O [glyphosate]	–	–	–	7.8

— paper PMC7655540, “Accumulation of Target Gene Mutations Confers Multiple Resistance to ALS, ACCase, and EPSPS Inhibitors in Lolium Species in Chile” (Frontiers in Plant Science, 2020)
